“And” between values parts separate entries of the source, which are not always exact repeats. Identical values can stand only once.
System: DYT-TOR1A MEF EVs
Experiment: Quantitative LC-MS/MS proteomics of EVs from drug-treated DYT-TOR1A MEF cultures (ritonavir, salubrinal)
Format: cell-based, mouse
Conditions: 24 h

CC(C)c1nc(CN(C)C(=O)N[C@H](C(=O)N[C@@H](Cc2ccccc2)C[C@H](O)[C@H](Cc2ccccc2)NC(=O)OCc2cncs2)C(C)C)cs1 [ritonavir]
DYT-TOR1A genotype-disrupted EV proteins (n=363) with significant changes in abundance following ritonavir treatment (20 μM ritonavir, p≤0.05): > 60% and 63% | DYT-TOR1A genotype-dependent protein disruptions changed by ritonavir in the corrective direction (20 μM): 95% | putative DYT biomarkers with ritonavir effects on protein abundance in the corrective direction (20 μM, independent of p-value, of 363 proteins): 344/363 | DYT EV proteome significantly modified by ritonavir (20 μM, uncorrected p<0.05, 1974 proteins): 29% | Acaa1a (ACAA1) EV abundance Log2_FC (DYT1+RTV/DYT1, 20 μM): 0.8675 | Ano6 (ANO6) EV abundance Log2_FC (DYT1+RTV/DYT1, 20 μM): 0.08584 | Ap1b1 (AP1B1) EV abundance Log2_FC (DYT1+RTV/DYT1, 20 μM): 1.328 | Arl8b (ARL8B) EV abundance Log2_FC (DYT1+RTV/DYT1, 20 μM): 0.4007 | Bzw2 (BZW2) EV abundance Log2_FC (DYT1+RTV/DYT1, 20 μM): 0.8082 | Cryab (CRYAB) EV abundance Log2_FC (DYT1+RTV/DYT1, 20 μM): 0.42 | DIst (DLST) EV abundance Log2_FC (DYT1+RTV/DYT1, 20 μM): −0.4459 | Ehd4 (EHD4) EV abundance Log2_FC (DYT1+RTV/DYT1, 20 μM): 0.07182 | Flna (FLNA) EV abundance Log2_FC (DYT1+RTV/DYT1, 20 μM): 0.3721 | Fscn1 (FSCN1) EV abundance Log2_FC (DYT1+RTV/DYT1, 20 μM): 0.402 | Gart (GART) EV abundance Log2_FC (DYT1+RTV/DYT1, 20 μM): 0.677 | Hist1h1b (H1-5) EV abundance Log2_FC (DYT1+RTV/DYT1, 20 μM): 0.9834 | Hnrnpc (HNRNPC) EV abundance Log2_FC (DYT1+RTV/DYT1, 20 μM): −0.1273 | Ipo9 (IPO9) EV abundance Log2_FC (DYT1+RTV/DYT1, 20 μM): 1.122 | Jam3 (JAM3) EV abundance Log2_FC (DYT1+RTV/DYT1, 20 μM): −1.301 | Lipg (LIPG) EV abundance Log2_FC (DYT1+RTV/DYT1, 20 μM): 1.299 | Lrrc59 (LRRC59) EV abundance Log2_FC (DYT1+RTV/DYT1, 20 μM): 0.1624 | Mapk3 (MAPK3) EV abundance Log2_FC (DYT1+RTV/DYT1, 20 μM): 1.986 | Mars (MARS1) EV abundance Log2_FC (DYT1+RTV/DYT1, 20 μM): 0.5148 | Mrc2 (MRC2) EV abundance Log2_FC (DYT1+RTV/DYT1, 20 μM): −0.09834 | Myh9 (MYH9) EV abundance Log2_FC (DYT1+RTV/DYT1, 20 μM): −0.00905 | Ndnf (NDNF) EV abundance Log2_FC (DYT1+RTV/DYT1, 20 μM): 0.4697 | Pcmt1 (PCMT1) EV abundance Log2_FC (DYT1+RTV/DYT1, 20 μM): 2.547 | Pi4ka (PI4KA) EV abundance Log2_FC (DYT1+RTV/DYT1, 20 μM): −0.3588 | Pitpnb (PITPNB) EV abundance Log2_FC (DYT1+RTV/DYT1, 20 μM): 0.7296 | Prpsap2 (PRPSAP2) EV abundance Log2_FC (DYT1+RTV/DYT1, 20 μM): −0.08407 | Psmc5 (PSMC5) EV abundance Log2_FC (DYT1+RTV/DYT1, 20 μM): 0.4559 | Psmd12 (PSMD12) EV abundance Log2_FC (DYT1+RTV/DYT1, 20 μM): 1.09 | Psme4 (PSME4) EV abundance Log2_FC (DYT1+RTV/DYT1, 20 μM): 1.371 | Ptma (PTMA) EV abundance Log2_FC (DYT1+RTV/DYT1, 20 μM): −0.8532 | Rap2b (RAP2B) EV abundance Log2_FC (DYT1+RTV/DYT1, 20 μM): 0.3342 | Rbm3 (RBM3) EV abundance Log2_FC (DYT1+RTV/DYT1, 20 μM): −0.1048 | Rhoa (RHOA) EV abundance Log2_FC (DYT1+RTV/DYT1, 20 μM): 0.1985 | Rpl10 (RPL10) EV abundance Log2_FC (DYT1+RTV/DYT1, 20 μM): 0.5214 | Rpl13a (RPL13A) EV abundance Log2_FC (DYT1+RTV/DYT1, 20 μM): 0.6732 | Rps13 (RPS13) EV abundance Log2_FC (DYT1+RTV/DYT1, 20 μM): 0.02007 | Sec31a (SEC31A) EV abundance Log2_FC (DYT1+RTV/DYT1, 20 μM): 0.8357 | Slc2a1 (SLC2A1) EV abundance Log2_FC (DYT1+RTV/DYT1, 20 μM): −0.03153 | Stom (STOM) EV abundance Log2_FC (DYT1+RTV/DYT1, 20 μM): 0.1986 | Tardbp (TARDBP) EV abundance Log2_FC (DYT1+RTV/DYT1, 20 μM): 0.2272 | Tgfb2 (TGFB2) EV abundance Log2_FC (DYT1+RTV/DYT1, 20 μM): −0.7218 | Tln1 (TLN1) EV abundance Log2_FC (DYT1+RTV/DYT1, 20 μM): 0.1451 | Tln2 (TLN2) EV abundance Log2_FC (DYT1+RTV/DYT1, 20 μM): 0.6441 | Tubb1 (TUBB1) EV abundance Log2_FC (DYT1+RTV/DYT1, 20 μM): −0.05972 | Usp7 (USP7) EV abundance Log2_FC (DYT1+RTV/DYT1, 20 μM): 1.189 | Wdr26 (WDR26) EV abundance Log2_FC (DYT1+RTV/DYT1, 20 μM): 1.2 | Zyx (ZYX) EV abundance Log2_FC (DYT1+RTV/DYT1, 20 μM): −0.3666 | Acaa1a (ACAA1) EV abundance Cohen's d (DYT + RTV/DYT, 20 μM): 1.381 | Ano6 (ANO6) EV abundance Cohen's d (DYT + RTV/DYT, 20 μM): 0.2001 | Ap1b1 (AP1B1) EV abundance Cohen's d (DYT + RTV/DYT, 20 μM): 3.258 | Arl8b (ARL8B) EV abundance Cohen's d (DYT + RTV/DYT, 20 μM): 0.9032 | Bzw2 (BZW2) EV abundance Cohen's d (DYT + RTV/DYT, 20 μM): 1.685 | Cryab (CRYAB) EV abundance Cohen's d (DYT + RTV/DYT, 20 μM): 0.7088 | DIst (DLST) EV abundance Cohen's d (DYT + RTV/DYT, 20 μM): −1.437 | Ehd4 (EHD4) EV abundance Cohen's d (DYT + RTV/DYT, 20 μM): 0.2557 | Flna (FLNA) EV abundance Cohen's d (DYT + RTV/DYT, 20 μM): 1.357 | Fscn1 (FSCN1) EV abundance Cohen's d (DYT + RTV/DYT, 20 μM): 2.995 | Gart (GART) EV abundance Cohen's d (DYT + RTV/DYT, 20 μM): 2.137 | Hist1h1b (H1-5) EV abundance Cohen's d (DYT + RTV/DYT, 20 μM): 1.182 | Hnrnpc (HNRNPC) EV abundance Cohen's d (DYT + RTV/DYT, 20 μM): −0.2031 | Ipo9 (IPO9) EV abundance Cohen's d (DYT + RTV/DYT, 20 μM): 4.135 | Jam3 (JAM3) EV abundance Cohen's d (DYT + RTV/DYT, 20 μM): −2.624 | Lipg (LIPG) EV abundance Cohen's d (DYT + RTV/DYT, 20 μM): 2.834 | Lrrc59 (LRRC59) EV abundance Cohen's d (DYT + RTV/DYT, 20 μM): 0.8879 | Mapk3 (MAPK3) EV abundance Cohen's d (DYT + RTV/DYT, 20 μM): 2.384 | Mars (MARS1) EV abundance Cohen's d (DYT + RTV/DYT, 20 μM): 2.211 | Mrc2 (MRC2) EV abundance Cohen's d (DYT + RTV/DYT, 20 μM): −0.4039 | Myh9 (MYH9) EV abundance Cohen's d (DYT + RTV/DYT, 20 μM): −0.03876 | Ndnf (NDNF) EV abundance Cohen's d (DYT + RTV/DYT, 20 μM): 0.353 | Pcmt1 (PCMT1) EV abundance Cohen's d (DYT + RTV/DYT, 20 μM): 5.975 | Pi4ka (PI4KA) EV abundance Cohen's d (DYT + RTV/DYT, 20 μM): −0.6453 | Pitpnb (PITPNB) EV abundance Cohen's d (DYT + RTV/DYT, 20 μM): 2.824 | Prpsap2 (PRPSAP2) EV abundance Cohen's d (DYT + RTV/DYT, 20 μM): −0.1421 | Psmc5 (PSMC5) EV abundance Cohen's d (DYT + RTV/DYT, 20 μM): 2.883 | Psmd12 (PSMD12) EV abundance Cohen's d (DYT + RTV/DYT, 20 μM): 10.6 | Psme4 (PSME4) EV abundance Cohen's d (DYT + RTV/DYT, 20 μM): 3.22 | Ptma (PTMA) EV abundance Cohen's d (DYT + RTV/DYT, 20 μM): −2.366 | Rap2b (RAP2B) EV abundance Cohen's d (DYT + RTV/DYT, 20 μM): 0.7129 | Rbm3 (RBM3) EV abundance Cohen's d (DYT + RTV/DYT, 20 μM): −0.4328 | Rhoa (RHOA) EV abundance Cohen's d (DYT + RTV/DYT, 20 μM): 0.3039 | Rpl10 (RPL10) EV abundance Cohen's d (DYT + RTV/DYT, 20 μM): 0.7944 | Rpl13a (RPL13A) EV abundance Cohen's d (DYT + RTV/DYT, 20 μM): 0.9222 | Rps13 (RPS13) EV abundance Cohen's d (DYT + RTV/DYT, 20 μM): 0.06202 | Sec31a (SEC31A) EV abundance Cohen's d (DYT + RTV/DYT, 20 μM): 4.402 | Slc2a1 (SLC2A1) EV abundance Cohen's d (DYT + RTV/DYT, 20 μM): −0.04516 | Stom (STOM) EV abundance Cohen's d (DYT + RTV/DYT, 20 μM): 0.4181 | Tardbp (TARDBP) EV abundance Cohen's d (DYT + RTV/DYT, 20 μM): 0.6116 | Tgfb2 (TGFB2) EV abundance Cohen's d (DYT + RTV/DYT, 20 μM): −1.388 | Tln1 (TLN1) EV abundance Cohen's d (DYT + RTV/DYT, 20 μM): 1.026 | Tln2 (TLN2) EV abundance Cohen's d (DYT + RTV/DYT, 20 μM): 1.031 | Tubb1 (TUBB1) EV abundance Cohen's d (DYT + RTV/DYT, 20 μM): −0.1131 | Usp7 (USP7) EV abundance Cohen's d (DYT + RTV/DYT, 20 μM): 7.143 | Wdr26 (WDR26) EV abundance Cohen's d (DYT + RTV/DYT, 20 μM): 3.714 | Zyx (ZYX) EV abundance Cohen's d (DYT + RTV/DYT, 20 μM): −0.7038 | Pearson r between ritonavir and salubrinal effects on putative DYT-TOR1A biomarker proteins (DYT-TOR1A MEF EVs, 20 μM each): 0.47

Source: patent US20260266848A1, “COMPOSITIONS AND METHODS FOR DIAGNOSING AND TREATING DYSTONIA” (Duke University, priority 2023, published 2026)
